From article PMC11530130, “Peripherally restricted PICK1 inhibitor mPD5 ameliorates pain behaviors in murine inflammatory and neuropathic pain models” (JCI Insight, 2024)
“And” between values parts separate entries of the source, which are not always exact repeats. Equal values may be shown once.

Assays:
[1] = Mass spectrometry biodistribution (plasma, CSF, spinal cord, brain); assay type: in vivo, mouse
Method: K2 tubes at 5 min, 30 min, 1 hour, 5 hours, 12 hours, 24 hours, and 48 hours and centrifuged (app 4 ℃, 3200 g, 10 min) for collection of plasma. Plasma was transferred to 96 well plates and quick-frozen over dry ice and kept at -60 ℃ until LC-MS/MS analysis. For LC-MS/MS analysis plasma with 0.25% Triton X100 in 50% MeOH/water (6 µL) was quenched with 160 µL of IS1 (internal standard in MeOH (Labetalol & tolbutamide & Verapamil & dexamethasone & glyburide & Celecoxib 100 ng/mL for each)) and the mixture was vortexed for 10 min at 800 rpm and centrifuged for 15 min at 3220 × g at 4 ℃. […] Plasma half-lives were determined from three points in the elimination phase. In a separate experiment, biodistribution was assessed (plasma, CSF, spinal cord, whole brain) at two hours after single dose of 10 µmol/kg or one hour after last injection in the repeated administration paradigm (10 µmol/kg followed by four s.c. administrations of 2 µmol/kg with one hour between). […] Plasma, CSF, and tissue samples (kept at 4 ℃) were processed and analysed as described above.
Concentration 10 µmol/kg: Wild type mice were habituated to the experimental room for a minimum of 60 min before initiation of the experiment. […] A video camera placed above the open field recorded the animals’ behaviour and Ethovision XT 13 (Noldus) was used to track the distance travelled by the […]

[2] = tested on: mice, spared nerve injury (SNI) model; assay: SNI model, von Frey, repeated s.c. administration on 2 consecutive days; assay type: in vivo, mouse; design: von Frey threshold, Fig 7A, individual mice: unit not given here
Excerpt: Repeated and sustained administration of mPD5 in the SNI model.
For the experiment with repeated administration of mPD5 (Figure 7A), male C57BL/6J (Janvier, France) mice underwent surgery leading to partial nerve injury, by cutting the peroneal and tibial nerves, producing hypersensitivity of the remaining sural nerve (SNI) as described in the “Induction of neuropathic pain (SNI model).”-section. On day 21 after surgery, hyperalgesia was confirmed by using von Frey filaments to induce mechanically evoked hypersensitivity and measure paw withdrawal threshold of the animals as described in the “Mechanically-evoked pain (von Frey).”-section. On the same day, mice were injected s.c. with 2, 10, or 50 μmol/kg mPD5 (10 μL/g) and evoked pain was tested again with the use of von Frey filaments at 1 and 5 hours after injection. 24 hours after the first injection, mice were injected s.c. with 2, 10, or 50 μmol/kg mPD5 (10 μL/g) again and evoked pain was tested with the use of von Frey filaments at 1, 5, and 24 hours after the second injection. […]

CCCCCCCCCCCCCC(=O)N(CCOCCOCCC(=O)N[C@@H](Cc1c[nH]cn1)C(=O)N[C@@H](Cc1c[nH]c2ccccc12)C(=O)N[C@@H](CC(C)C)C(=O)N[C@@H](CCCCN)C(=O)N[C@H](C(=O)O)C(C)C)CCOCCOCCC(=O)N[C@@H](Cc1c[nH]cn1)C(=O)N[C@@H](Cc1c[nH]c2ccccc12)C(=O)N[C@@H](CC(C)C)C(=O)N[C@@H](CCCCN)C(=O)N[C@H](C(=O)O)C(C)C [mPD5, myristoyl-NPEG4-(HWLKV)2]
level at 1 h ([1]; C57BL/6NRj, mouse, plasma, sc, 10 umol/kg, 1 hour after s.c. 10 μmol/kg, LLOQ = 2 ng/mL, n = 3): 3280 ± 615 ng/mL
detection in CSF, spinal cord, and brain tissue by mass spectrometry ([1]; after s.c. injection in mice): did not detect
von Frey threshold, contralateral paw, Fig 7A, individual mice ([2]; A_contra, hr 5 day2): 1.4 and 1 (3×)
von Frey threshold, contralateral paw, Fig 7A, individual mice ([2]; A_contra, hr23): 1 (3×) and 1.4 (4×) and 2
von Frey threshold, contralateral paw, Fig 7A, individual mice ([2]; A_contra, hr1 day 1): 1.4 (6×) and 1 and 2
von Frey threshold, contralateral paw, Fig 7A, individual mice ([2]; A_contra, hr 1 day 2): 1 (5×) and 1.4 (2×) and 2
von Frey threshold, contralateral paw, Fig 7A, individual mice ([2]; A_contra, hr 5 day 1): 1.4 (6×) and 2 and 1
von Frey threshold, contralateral paw, Fig 7A, individual mice ([2]; B_contra, hr23): 1.4 (4×) and 1 (3×) and 2
von Frey threshold, contralateral paw, Fig 7A, individual mice ([2]; B_contra, hr1 day 1): 1.4 (5×) and 1 (3×)
von Frey threshold, contralateral paw, Fig 7A, individual mice ([2]; B_contra, hr 1 day 2): 1.4 (5×) and 1 (3×)
von Frey threshold, contralateral paw, Fig 7A, individual mice ([2]; B_contra, hr 5 day 1): 1.4 and 1 (2×) and 2 (5×)
von Frey threshold, contralateral paw, Fig 7A, individual mice ([2]; C_comtra, hr23): 2 and 1.4 (5×) and 1 (2×)
von Frey threshold, contralateral paw, Fig 7A, individual mice ([2]; C_comtra, hr1 day 1): 3 and 2 (2×) and 1 (2×) and 1.4 (3×)
von Frey threshold, contralateral paw, Fig 7A, individual mice ([2]; C_comtra, hr 1 day 2): 1 (2×) and 1.4 (4×) and 2 (2×)
von Frey threshold, contralateral paw, Fig 7A, individual mice ([2]; C_comtra, hr 5 day 1): 2 and 1 (4×) and 1.4 (3×)
relief of mechanical hypersensitivity ([2]; SNI 3 weeks after surgery, first day, s.c. 50 μmol/kg only, 5 hours): significant effect at 5 hours
relief of mechanical hypersensitivity ([2]; SNI 3 weeks after surgery, first day, s.c. 2, 10, 50 μmol/kg (all concentrations), 1 hour): significant effects at 1 hour
relief of mechanical hypersensitivity ([2]; SNI, next day (second injection), only 10 and 50 μmol/kg, 1 and 5 hours after administration): significant pain relief
development of tolerance ([2]; SNI, s.c. 2, 10, 50 μmol/kg on 2 consecutive days): do not indicate immediate development of tolerance
von Frey threshold, Fig 7A, individual mice ([2]; group 2, hr 5 day2): 0.07 and 0.16 (2×)
von Frey threshold, Fig 7A, individual mice ([2]; group 2, hr23): 0.07 (5×) and 0.16 (3×)
von Frey threshold, Fig 7A, individual mice ([2]; group 2, hr1 day 1): 0.16 and 1 (2×) and 0.6 (2×) and 1.4 and 0.4 (2×)
von Frey threshold, Fig 7A, individual mice ([2]; group 2, hr 1 day 2): 0.16 (3×) and 1 and 0.6 (3×) and 0.4
von Frey threshold, Fig 7A, individual mice ([2]; group 2, hr 5 day 1): 0.07 (2×) and 0.4 (3×) and 0.16 (2×) and 0.6
von Frey threshold, Fig 7A, individual mice ([2]; group 10, hr 5 day2): 1
von Frey threshold, Fig 7A, individual mice ([2]; group 10, hr23): 0.16 (3×) and 0.4 (3×) and 0.07 (2×)
von Frey threshold, Fig 7A, individual mice ([2]; group 10, hr1 day 1): 1 (3×) and 2 (2×) and 0.4 and 1.4 and 0.6
von Frey threshold, Fig 7A, individual mice ([2]; group 10, hr 1 day 2): 1 (3×) and 2 (2×) and 0.4 (2×) and 1.4
von Frey threshold, Fig 7A, individual mice ([2]; group 10, hr 5 day 1): 0.16 and 2 and 1 (2×) and 0.07 and 0.4 (3×)
von Frey threshold, Fig 7A, individual mice ([2]; group 50, hr23): 0.16 (5×) and 0.07 (3×)
von Frey threshold, Fig 7A, individual mice ([2]; group 50, hr1 day 1): 1.4 (5×) and 1 and 0.6 and 0.16
von Frey threshold, Fig 7A, individual mice ([2]; group 50, hr 1 day 2): 1 (4×) and 0.6 and 1.4 (2×) and 0.4
von Frey threshold, Fig 7A, individual mice ([2]; group 50, hr 5 day 1): 0.6 (3×) and 1 and 0.4 (2×) and 0.16 (2×)
